# According to patent US7125572B2, “Tyrosinase inhibitor extract” (Kaoder Industry Company, Ltd., priority 2004, dated 2006):
# Tested on: tyrosinase
# Experiment: Determination of tyrosinase inhibitory effect (L-DOPA substrate, absorbance at 475 nm)
# Details: comparison with arbutin, determined in a way described in Example 4
# Experimental: The activity of tyrosinase was determined at the wavelength of 475 nm and calculated from the decrease of the absorbance.
# 35 μl of the tyrosinase inhibitor extract of Example 1 and 35 μl of 80% propylene glycol were used as the test and control samples. The inhibition percent of the tyrosinase activity was calculated by the equation: Inhibition percentage (%) of the tyrosine activity=[1−(Absorbance of experiment sample)/(Absorbance of control sample)]×100%. The DOPA and tyrosinase solution (1000 units/ml in 16.7 mM potassium phosphate butter) used in the following experiments were purchased from Sigma Corp., USA.
# 15.1 of tyrosinase solutions was added to each (35 μl) of six samples of tyrosinase inhibitor extract of Example 1. The resultant solutions were maintained at 25. for 0, 1, 2, 3, 4, 5, 6 hours, respectively. 450.1 of L-DOPA substrate was added to each of the solutions.
# 15.1 of tyrosinase solutions was added to each (35 μl) of three samples of tyrosinase inhibitor extract of Example 1. The resultant solutions were maintained at 25., 37. and 50. for 1 hour, respectively. 450.1 of L-DOPA substrate was added to each of the solutions.
# 15.1 of tyrosinase solutions was added to each (35 μl) of five samples of tyrosinase inhibitor extract of Example 1. The resultant solutions were maintained at pH 4, 5, 6, 7 and 8 for 1 hour, respectively. […]
smiles,measurement,value
OC[C@H]1O[C@@H](Oc2ccc(O)cc2)[C@H](O)[C@@H](O)[C@@H]1O [Arbutin],% inhibitory Activity,32+−0.0%
